# Reference: publication PMC7878868, “Mechanisms of feedback inhibition and sequential firing of active sites in plant aspartate transcarbamoylase” (Nature Communications, 2021)
# Numbering of substitutions follows the chain as printed. Values joined by “and” are separate entries in the source; they are usually repeats but may differ in a detail not shown here. Equal values may be shown once. Read-outs that look alike come from different tables or passages of the source.
# Key:
# [1] = target: T1, atATC-F161A (Arabidopsis thaliana, UniProt P49077, F161A); assay: Colorimetric ATC activity assay, atATC F161A; format: biochemical; conditions: for Activity F161A: 10 mM Asp
# T1 construct: 2.6 kDa fusion tag (modified pET28a); made in house; host or cells: E. coli BLR(DE3)-pLysS
# T1 sequence (P49077 82-390 F161A): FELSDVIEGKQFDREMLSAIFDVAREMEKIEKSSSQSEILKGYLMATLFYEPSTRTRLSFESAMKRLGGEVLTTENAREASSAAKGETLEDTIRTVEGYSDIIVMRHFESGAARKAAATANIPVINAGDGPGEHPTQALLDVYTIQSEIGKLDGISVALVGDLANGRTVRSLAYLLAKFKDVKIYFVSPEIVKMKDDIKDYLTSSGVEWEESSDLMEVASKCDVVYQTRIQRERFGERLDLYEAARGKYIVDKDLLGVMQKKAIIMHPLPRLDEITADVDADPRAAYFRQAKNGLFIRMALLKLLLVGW
# Experimental: (§1) Activity was assayed by a colorimetric method[64] adapted to a 96-well plate format. […] Reagent B is light sensitive and was stored at 4 °C in the dark. The color reagents were gently mixed and stored at 4 °C in the dark until added to the sample. Reaction tubes were closed, boiled at 95 °C for 15 min, and kept in the dark for 30 min before measuring the absorbance at 450 nm in a Tecan infinite m200 microplate reader (Tecan). […] Data analysis was done with GraphPad. […] Protein concentration in the assay was 0.3 µM (0.01 mg ml^−1) both for WT and F161A.
# [2] = target: T1, atATC-F161A; assay: biochemical; format: binding
# Experimental: (§2) Experiments were performed in an Auto-iTC200 calorimeter (MicroCal, Malvern-Panalytical) at 25 °C with a 0.2 ml reaction cell and 30–40 µM protein solution (in protomer units) in the cell. […] All solutions were in GF buffer and degassed and mixed in the cell by stirring at 750 rpm. Data analysis was performed with Origin 7 (OriginLab) using a general three-site cooperative and a non-cooperative binding model, restricted to one or two ligand binding sites when convenient[24],[62],[63]. Non-linear least-squares regression analysis was employed to estimate dissociation constants for the interaction of the different ligands with ATC.
# [3] = target: T2, atATC WT (Arabidopsis thaliana, UniProt P49077); assay: Colorimetric ATC activity assay, atATC WT; format: biochemical; conditions: for Activity WT: 10 mM Asp
# T2 construct: 2.6 kDa fusion tag (modified pET28a); made in house; host or cells: E. coli BLR(DE3)-pLysS
# T2 sequence (P49077 82-390): T1 sequence (P49077 82-390 F161A) with A80F
# Experimental: as §1
# [4] = target: T3, atATC WT:PALA (Arabidopsis thaliana, UniProt P49077); assay: ITC, atATC WT prebound to PALA (WT:PALA); format: binding; conditions: for N, number of binding sites per protein trimer according to the ligand binding model / -TΔS Site 2 / ΔG Site 2 / ΔH Site 2 / -TΔS Site 3 / ΔG Site 3 / ΔH Site 3: ITC, protein prebound to PALA; for Kd: read-out: KD Site 2
# T3 construct: 2.6 kDa fusion tag (modified pET28a); made in house; host or cells: E. coli BLR(DE3)-pLysS
# T3 sequence (P49077 82-390): T1 sequence (P49077 82-390 F161A) with A80F
# Experimental: as §2
# [5] = target: T4, atATC (Arabidopsis ATC aa 82–390) WT (Arabidopsis thaliana, UniProt P49077); assay: Isothermal titration calorimetry (ITC), atATC WT; format: binding; conditions: ITC; for Kd: 25 °C
# T4 construct: 2.6 kDa fusion tag (modified pET28a); made in house; host or cells: E. coli BLR(DE3)-pLysS
# T4 sequence (P49077 82-390): T1 sequence (P49077 82-390 F161A) with A80F
# Experimental: as §2
compound,measurement,setting,value
"O=c1ccn([C@@H]2O[C@H](COP(=O)(O)O)[C@@H](O)[C@H]2O)c(=O)[nH]1 [UMP, uridine 5-monophosphate]",Activity F161A,"[1]; 0.2 mM UMP, [CP] 0.31 mM",31.06 nmol / min μg and 26.77 nmol / min μg and 21.39 nmol / min μg
same,Activity F161A,"[1]; 0.2 mM UMP, [CP] 0.63 mM",62.38 nmol / min μg and 46.00 nmol / min μg and 48.44 nmol / min μg
same,Activity F161A,"[1]; 0.2 mM UMP, [CP] 1.25 mM",61.36 nmol / min μg and 58.95 nmol / min μg and 63.80 nmol / min μg
same,Activity F161A,"[1]; 0.2 mM UMP, [CP] 2.50 mM",64.72 nmol / min μg and 56.89 nmol / min μg and 56.14 nmol / min μg
same,Activity F161A,"[1]; 0.4 mM UMP, [CP] 0.31 mM",27.07 nmol / min μg and 21.22 nmol / min μg and 30.75 nmol / min μg
same,Activity F161A,"[1]; 0.4 mM UMP, [CP] 0.63 mM",50.59 nmol / min μg and 53.67 nmol / min μg and 49.88 nmol / min μg
same,Activity F161A,"[1]; 0.4 mM UMP, [CP] 1.25 mM",68.18 nmol / min μg and 58.61 nmol / min μg and 62.41 nmol / min μg
same,Activity F161A,"[1]; 0.4 mM UMP, [CP] 2.50 mM",55.88 nmol / min μg and 59.00 nmol / min μg and 63.38 nmol / min μg
same,inhibition of enzyme activity by UMP,[1]; F161A,not inhibited
same,binding detected by ITC,"[2]; F161A, 70 µM UMP at most, 30-40 µM protein",failed to detect the binding
same,Activity WT,"[3]; 0.1 mM UMP, [CP] 0.31 mM",4.11 nmol / min μg and 7.63 nmol / min μg and 5.39 nmol / min μg
same,Activity WT,"[3]; 0.1 mM UMP, [CP] 1.25 mM",41.20 nmol / min μg and 48.03 nmol / min μg and 40.64 nmol / min μg
same,Activity WT,"[3]; 0.1 mM UMP, [CP] 2.50 mM",66.92 nmol / min μg and 70.05 nmol / min μg and 71.44 nmol / min μg
same,Activity WT,"[3]; 0.1 mM UMP, [CP] 3.00 mM",72.17 nmol / min μg and 74.13 nmol / min μg and 71.50 nmol / min μg
same,Activity WT,"[3]; 0.1 mM UMP, [CP] 4.00 mM",77.07 nmol / min μg and 76.02 nmol / min μg and 75.78 nmol / min μg
same,Activity WT,"[3]; 0.1 mM UMP, [CP] 5.00 mM",76.47 nmol / min μg and 78.06 nmol / min μg and 76.19 nmol / min μg
same,Activity WT,"[3]; 0.4 mM UMP, [CP] 1.25 mM",9.87 nmol / min μg and 11.15 nmol / min μg and 12.99 nmol / min μg
same,Activity WT,"[3]; 0.4 mM UMP, [CP] 2.50 mM",28.61 nmol / min μg and 31.67 nmol / min μg and 35.52 nmol / min μg
same,Activity WT,"[3]; 0.4 mM UMP, [CP] 3.00 mM",41.63 nmol / min μg and 37.33 nmol / min μg and 40.36 nmol / min μg
same,Activity WT,"[3]; 0.4 mM UMP, [CP] 4.00 mM",48.76 nmol / min μg and 50.91 nmol / min μg and 53.68 nmol / min μg
same,Activity WT,"[3]; 0.4 mM UMP, [CP] 5.00 mM",58.15 nmol / min μg and 59.40 nmol / min μg and 57.60 nmol / min μg
same,"N, number of binding sites per protein trimer according to the ligand binding model",[4],2
same,-TΔS Site 2,[4],-8.5 kcal/mol
same,ΔG Site 2,[4],-8.1 kcal/mol
same,ΔH Site 2,[4],0.4 kcal/mol
same,-TΔS Site 3,[4],-8.5 kcal/mol
same,ΔG Site 3,[4],-8.1 kcal/mol
same,ΔH Site 3,[4],0.4 kcal/mol
same,Kd,[4],1200 nM
same,"N, number of binding sites per protein trimer according to the ligand binding model",[5],3
same,fold higher affinity for UMP than for CP,[5],~400 fold
same,fold higher affinity for UMP than for the transition-state analog (PALA),[5],3 fold
same,Kd,"[5]; site 1, read-out: KD Site 1",210 nM and 200 nM
same,Kd,"[5]; site 2, read-out: KD Site 2",2300 nM
same,Kd,"[5]; site 3, read-out: KD Site 3",1600 nM
same,fold reduction of the affinity of the other subunits after binding to the first site,[5]; negative cooperativity,10 fold
same,-TΔS Site 1,[5],-6.3 kcal/mol
same,ΔG Site 1,[5],-9.1 kcal/mol
same,ΔH Site 1,[5],-2.8 kcal/mol
same,-TΔS Site 2,[5],-8.9 kcal/mol
same,ΔG Site 2,[5],-7.7 kcal/mol
same,ΔH Site 2,[5],1.2 kcal/mol
same,-TΔS Site 3,[5]; site 3,-7.4 kcal/mol
same,ΔG Site 3,[5]; site 3,-7.9 kcal/mol
same,ΔH Site 3,[5]; site 3,-0.5 kcal/mol
"NC(=O)OP(=O)(O)O [CP, carbamoyl phosphate]","N, number of binding sites per protein trimer according to the ligand binding model","[2]; ITC, F161A",3
same,fold higher affinity of F161A than WT,"[2]; ITC, F161A versus WT",~ 100 fold
same,-TΔS Site 1,"[2]; ITC, F161A, site 1",-2.4 kcal/mol
same,ΔG Site 1,"[2]; ITC, F161A, site 1",-8.4 kcal/mol
same,ΔH Site 1,"[2]; ITC, F161A, site 1",-6.0 kcal/mol
same,-TΔS Site 2,"[2]; ITC, F161A, site 2",-2.4 kcal/mol
same,ΔG Site 2,"[2]; ITC, F161A, site 2",-8.4 kcal/mol
same,ΔH Site 2,"[2]; ITC, F161A, site 2",-6.0 kcal/mol
same,-TΔS Site 3,"[2]; ITC, F161A, site 3",-2.4 kcal/mol
same,ΔG Site 3,"[2]; ITC, F161A, site 3",-8.4 kcal/mol
same,ΔH Site 3,"[2]; ITC, F161A, site 3",-6.0 kcal/mol
same,Kd,"[2]; KD Site 1, ITC, F161A, site 1",730 nM
same,Kd,"[2]; KD Site 2, ITC, F161A, site 2",730 nM
same,Kd,"[2]; KD Site 3, ITC, F161A, site 3",730 nM
same,Kd,"[2]; KD, ITC, F161A",700 nM
same,Hill-coefficient h of CP initial-rate plot,"[3]; WT, CP as variable ligand, in the presence of UMP",2.2
same,"N, number of binding sites per protein trimer according to the ligand binding model",[4],2
same,-TΔS Site 2,[4],0.4 kcal/mol
same,ΔG Site 2,[4],-5.3 kcal/mol
same,ΔH Site 2,[4],-5.7 kcal/mol
same,-TΔS Site 3,[4],0.4 kcal/mol
same,ΔG Site 3,[4],-5.3 kcal/mol
same,ΔH Site 3,[4],-5.7 kcal/mol
same,Kd,[4],140000 nM
same,"N, number of binding sites per protein trimer according to the ligand binding model",[5],3
same,Kd,"[5]; site 1, read-out: KD Site 1",80000 nM
same,Kd,"[5]; site 2, read-out: KD Site 2",80000 nM
same,Kd,"[5]; site 3, read-out: KD Site 3",80000 nM
same,-TΔS Site 1,[5],-2.6 kcal/mol
same,ΔG Site 1,[5],-5.6 kcal/mol
same,ΔH Site 1,[5],-3.0 kcal/mol
same,-TΔS Site 2,[5],-2.6 kcal/mol
same,ΔG Site 2,[5],-5.6 kcal/mol
same,ΔH Site 2,[5],-3.0 kcal/mol
same,-TΔS Site 3,[5]; site 3,-2.6 kcal/mol
same,ΔG Site 3,[5]; site 3,-5.6 kcal/mol
"N[C@@H](CC(=O)O)C(=O)O [Asp, aspartate]",K0.5 Asp,"[1]; F161A, Asp variable, 5 mM CP",3.20 ± 1.03 mM
same,K0.5 Asp,"[3]; WT, Asp variable, 5 mM CP",0.94 mM and 0.94 ± 0.10 mM
